Reference: patent US4378358A, “Benzothiazinopyrazoles having pharmacological activity” (Mediolanum Farmaceutici s.r.l., priority 1980, dated 1983)
Where two headings read alike, the source gives them in different places.

Columns and labels:
in vivo [1] = type: in vivo; settings: rat, in vivo, po; read-out: LD 50 (Litchfield and Wilcoxon)
Rat [2] = experiment: in vivo; type: in vivo; settings: per os
in vivo [3] = settings: rat, in vivo, po
Source text: (§1) Five days subacute toxicity in rats per os
(§2) Animals: 5 female rats for each group, average body weight: 150g.

rats [4] = experiment: in vivo; settings: 5 days, rats, per os
Source text: as §1, §2

rats [5] = type: in vivo, rat; settings: for Average number of lesions per animal: 100 mg/kg (maximum tested dose); for Average number of lesions per animal / Gastrolesive effect, relative potency to naproxen / Gastrolesive effect, relative potency to piroxicam: single oral administration, male rats
Procedure: The test was modified by increasing the fast period to 70 hours and giving the total dose of substance in one single oral administration.
Animals: 10 male rats for each group, average body weight: 150g.

pyresis = experiment: Antipyretic activity according to Burn et al.; type: in vivo, rat; settings: for Reduction of the pyresis at hour 4: female rats
Source text: Animals: 6 female rats for each group, average body weight 200 g.

phenylquinone writhes = experiment: Analgesic activity according to Hendershot et al., phenylquinone writhes, modified; type: in vivo, mouse
Procedure: Analgesic activity according to HENDERSHOT et al., Jour. Pharm.
The test was modified by numbering the writhes only along the time interval from 5 to 15 minutes since the injection of phenylquinone. The injection was made 2 hours after the oral administration of the compound to be tested.
Animals: 8 female mice for each group, average body weight: 25g

carrageenin paw edema = experiment: Antiinflammatory activity according to Winter et al., carrageenin paw edema, modified; type: in vivo, rat
Procedure: Antiinflammatory activity according to WINTER et al., Proc. Soc. Exp. Biol. Med.; 111, 544; 1962.
The test was modified in that the injection of carrageenin and the administration of the compound by gastric gavage were carried out simultaneously and the paw edema was measured at the plethysmograph after 4 hours.
Animals: 6 female rats for each group, average body weight: 150g

in vivo [6] = settings: mouse, po
Rat [7] = settings: per os, literature value (footnotes a, b); cited from earlier work
[8] = 50 mg/g (so in the source) per os
[9] = 100 mg/g (so in the source) per os
[10] = Mus musculus, 50 mg/kg oral, 2 h before phenylquinone, 5-15 min, female mice
[11] = Mus musculus, 100 mg/kg oral, 2 h before phenylquinone, 5-15 min, female mice
[12] = Rattus norvegicus, po, 4 h, 50 mg/kg per os, female rats, read-out: % inhibition of the edema after 4 hours
[13] = Rattus norvegicus, po, 4 h, 100 mg/kg per os, female rats, read-out: % inhibition of the edema after 4 hours
[14] = 200 mg/kg/day, read-out: % of dead animals

CN(C)CCCNC(=O)c1nn(-c2cccc(F)c2)c2c1N(C)S(=O)(=O)c1ccccc1-2 [Compound I-21]
LD50 (in vivo [1]): 2260 mg/kg
LD 50, relative ratio to naproxen (Rat [2]): 4.2
LD 50, relative ratio to piroxicam (Rat [2]): 8.4
mortality at 120 h (in vivo [3]; 350 mg/kg/day, read-out: % of dead animals): 0%
Subacute toxicity, relative ratio to naproxen (rats [4]): 7
Subacute toxicity, relative ratio to piroxicam (rats [4]): 17
Average number of lesions per animal (rats [5]): 0
Gastrolesive effect, relative potency to naproxen (rats [5]): > 20
Gastrolesive effect, relative potency to piroxicam (rats [5]): 100
Antipyretic relative potency to naproxen (pyresis; [8]): 0.4
Antipyretic relative potency to piroxicam (pyresis; [8]): 0.5
Reduction of the pyresis at hour 4 (pyresis; [8]): 0.47 °C
Antipyretic relative potency to naproxen (pyresis; [9]): 0.7
Antipyretic relative potency to piroxicam (pyresis; [9]): 0.8
Reduction of the pyresis at hour 4 (pyresis; [9]): 0.75 °C
Analgesic relative potency to naproxen (phenylquinone writhes; 50 mg/kg oral): 1.4
Analgesic relative potency to piroxicam (phenylquinone writhes; 50 mg/kg oral): 1.0
Analgesic relative potency to naproxen (phenylquinone writhes; 100 mg/kg oral): 2.0
Analgesic relative potency to piroxicam (phenylquinone writhes; 100 mg/kg oral): 1.4
inhibition in vivo at 50 mg/kg (phenylquinone writhes; [10]): 47%
inhibition in vivo at 100 mg/kg (phenylquinone writhes; [11]): 65%
Antiinflammatory relative potency to naproxen (carrageenin paw edema; 50 mg/kg per os): 0.6
Antiinflammatory relative potency to piroxicam (carrageenin paw edema; 50 mg/kg per os): 0.3
Antiinflammatory relative potency to naproxen (carrageenin paw edema; 100 mg/kg per os): 0.9
Antiinflammatory relative potency to piroxicam (carrageenin paw edema; 100 mg/kg per os): 0.4
inhibition in vivo at 50 mg/kg (carrageenin paw edema; [12]): 12%
inhibition in vivo at 100 mg/kg (carrageenin paw edema; [13]): 19%
LD 50, relative ratio to naproxen (Mouse; per os): 1.2
LD 50, relative ratio to piroxicam (Mouse; per os): 4.2
LD50 (in vivo [6]): 1520 mg/kg

CN1c2c(C(=O)NCCCNC3CCCCC3)nn(-c3cccc(F)c3)c2-c2ccccc2S1(=O)=O [Compound I-23]
LD50 (in vivo [1]): 1200 mg/kg
LD 50, relative ratio to naproxen (Rat [2]): 2.2
LD 50, relative ratio to piroxicam (Rat [2]): 4.4
mortality at 120 h (in vivo [3]; [14]): 0%
Subacute toxicity, relative ratio to naproxen (rats [4]): 4
Subacute toxicity, relative ratio to piroxicam (rats [4]): 10
Average number of lesions per animal (rats [5]): 0
Gastrolesive effect, relative potency to naproxen (rats [5]): > 20
Gastrolesive effect, relative potency to piroxicam (rats [5]): 100
Antipyretic relative potency to naproxen (pyresis; [8]): 1.1
Antipyretic relative potency to piroxicam (pyresis; [8]): 1.3
Reduction of the pyresis at hour 4 (pyresis; [8]): 1.20 °C
Antipyretic relative potency to naproxen (pyresis; [9]): 1.3
Antipyretic relative potency to piroxicam (pyresis; [9]): 1.6
Reduction of the pyresis at hour 4 (pyresis; [9]): 1.42 °C
Analgesic relative potency to naproxen (phenylquinone writhes; 50 mg/kg oral): 1.6
Analgesic relative potency to piroxicam (phenylquinone writhes; 50 mg/kg oral): 1.2
Analgesic relative potency to naproxen (phenylquinone writhes; 100 mg/kg oral): 2.4
Analgesic relative potency to piroxicam (phenylquinone writhes; 100 mg/kg oral): 1.7
inhibition in vivo at 50 mg/kg (phenylquinone writhes; [10]): 54%
inhibition in vivo at 100 mg/kg (phenylquinone writhes; [11]): 79%
Antiinflammatory relative potency to naproxen (carrageenin paw edema; 50 mg/kg per os): 1.3
Antiinflammatory relative potency to piroxicam (carrageenin paw edema; 50 mg/kg per os): 0.6
Antiinflammatory relative potency to naproxen (carrageenin paw edema; 100 mg/kg per os): 1.8
Antiinflammatory relative potency to piroxicam (carrageenin paw edema; 100 mg/kg per os): 0.8
inhibition in vivo at 50 mg/kg (carrageenin paw edema; [12]): 27%
inhibition in vivo at 100 mg/kg (carrageenin paw edema; [13]): 38%
LD 50, relative ratio to piroxicam (Mouse; in vivo): 2.0
LD50 (in vivo [6]): 720 mg/kg

CCN1CCCC1CNC(=O)c1nn(-c2ccccc2)c2c1N(C)S(=O)(=O)c1ccccc1-2 (stereo not drawn) [Compound I-24]
LD50 (in vivo [1]): 1060 mg/kg
LD 50, relative ratio to piroxicam (Rat [2]): 3.9
mortality at 120 h (in vivo [3]; [14]): 0%
Subacute toxicity, relative ratio to naproxen (rats [4]): 4
Subacute toxicity, relative ratio to piroxicam (rats [4]): 10
Average number of lesions per animal (rats [5]): 0
Gastrolesive effect, relative potency to naproxen (rats [5]): > 20
Gastrolesive effect, relative potency to piroxicam (rats [5]): 100
Antipyretic relative potency to naproxen (pyresis; [8]): 0.7
Antipyretic relative potency to piroxicam (pyresis; [8]): 0.9
Reduction of the pyresis at hour 4 (pyresis; [8]): 0.81 °C
Antipyretic relative potency to naproxen (pyresis; [9]): 1.1
Antipyretic relative potency to piroxicam (pyresis; [9]): 1.4
Reduction of the pyresis at hour 4 (pyresis; [9]): 1.24 °C
Analgesic relative potency to naproxen (phenylquinone writhes; 50 mg/kg oral): 0.9
Analgesic relative potency to piroxicam (phenylquinone writhes; 50 mg/kg oral): 0.7
Analgesic relative potency to naproxen (phenylquinone writhes; 100 mg/kg oral): 1.4
Analgesic relative potency to piroxicam (phenylquinone writhes; 100 mg/kg oral): 1.0
inhibition in vivo at 50 mg/kg (phenylquinone writhes; [10]): 30%
inhibition in vivo at 100 mg/kg (phenylquinone writhes; [11]): 47%
Antiinflammatory relative potency to naproxen (carrageenin paw edema; 50 mg/kg per os): 1.8
Antiinflammatory relative potency to piroxicam (carrageenin paw edema; 50 mg/kg per os): 0.8
Antiinflammatory relative potency to naproxen (carrageenin paw edema; 100 mg/kg per os): 2.1
Antiinflammatory relative potency to piroxicam (carrageenin paw edema; 100 mg/kg per os): 1.0
inhibition in vivo at 50 mg/kg (carrageenin paw edema; [12]): 38%
inhibition in vivo at 100 mg/kg (carrageenin paw edema; [13]): 45%
LD 50, relative ratio to piroxicam (Mouse; per os): 2.1
LD50 (in vivo [6]): 760 mg/kg

CN1C(C(=O)Nc2ccccn2)=C(O)c2ccccc2S1(=O)=O [Piroxicam, piroxicam, reference compound]
LD 50, relative ratio to piroxicam (Rat [2]): 1
mortality at 120 h (in vivo [3]; 20 mg/kg/day): 0%
mortality (in vivo [3]; 30 mg/kg/day): 6%
mortality at 120 h (in vivo [3]; 30 mg/kg/day): 40%
Subacute toxicity, relative ratio to piroxicam (rats [4]): 1
Gastrolesive effect, relative potency to piroxicam (rats [5]): 1
Gastric ulcerogenicity (in words) (rats [5]; rat, in vivo): considerable gastrolesive power
Reduction of the pyresis at hour 4 (pyresis; 10 mg/g (so in the source) per os): 0.89 °C
inhibition in vivo at 10 mg/kg (phenylquinone writhes; Mus musculus, 10 mg/kg oral, 2 h before phenylquinone, 5-15 min, female mice): 46%
inhibition in vivo at 10 mg/kg (carrageenin paw edema; Rattus norvegicus, po, 4 h, 10 mg/kg per os, female rats, read-out: % inhibition of the edema after 4 hours): 45%
LD 50, relative ratio to piroxicam (Mouse; per os): 1
LD 50 (Litchfield and Wilcoxon) (Rat [7]): 270 mg/kg
